Key:
[1] = Cytotoxicity against African green monkey Vero cells assessed as reduction in cell viability incubated for 24 hrs by fluorescence based analysis; type: toxicity; conditions: African green monkey (Chlorocebus sabaeus)
[2] = Cytotoxicity against African monkey Vero cells assessed as reduction in cell viability incubated for 72 hrs by MTT assay; type: toxicity, cell-based; conditions: chlorocebus sabaeus
[3] = tested on: Plasmodium falciparum; experiment: Antimalarial activity against chloroquine-sensitive Plasmodium falciparum 3D7 assessed as reduction in parasite growth incubated for 36 hrs by Giemsa staining based microscopic analysis; type: functional, organism-based; conditions: 3D7, 36 h
[4] = tested on: Hemozoin; experiment: Inhibition of Beta-hematin formation in Plasmodium falciparum 3D7 by spectrophotometric analysis
[5] = tested on: Hemozoin; experiment: Inhibition of Beta-hematin formation in Plasmodium falciparum K1 by spectrophotometric analysis
[6] = tested on: Plasmodium falciparum; experiment: Antiplasmodial activity against Plasmodium falciparum 3D7; type: functional, organism-based
[7] = tested on: Plasmodium falciparum; experiment: Antimalarial activity against chloroquine-resistant Plasmodium falciparum K1 assessed as reduction in parasite growth incubated for 72 hrs by SYBR Green staining based fluorescence analysis; type: functional, organism-based; conditions: K1, 72 h
[8] = Cytotoxicity against African green monkey Vero cells assessed as reduction in cell viability incubated for 72 hrs by MTT assay; type: toxicity, cell-based; conditions: chlorocebus sabaeus
[9] = tested on: Plasmodium falciparum; experiment: Antimalarial activity against chloroquine-sensitive Plasmodium falciparum 3D7 assessed as reduction in parasite growth incubated for 72 hrs by SYBR Green staining based fluorescence analysis; type: functional, organism-based; conditions: 3D7, 72 h
[10] = Cytotoxicity against Chinese hamster CHO cells assessed as reduction in cell viability by MTT assay; type: toxicity, cell-based; conditions: Chinese hamster (Cricetulus griseus)
[11] = tested on: Plasmodium falciparum; experiment: Antiplasmodial activity against chloroquine-sensitive Plasmodium falciparum NF54 by lactate dehydrogenase assay; type: functional, organism-based

O=C1c2ccc(N3CCCCC3)cc2C(=O)N1CCCCNc1ccnc2cc(Cl)ccc12 showed an IC50 at 24 h [1] of 27 µM.

O=C(Cn1cc(COc2ccc(Br)cc2)nn1)NCCNc1ccnc2cc(Cl)ccc12 gave a CC50 at 72 h [2] of 78.2 µM and an IC50 [3] of 0.04 µM.

With Clc1ccc2c(NCCn3cncc3C3CCCC3)ccnc2c1 the IC50 [4] was 0.079 µM and the IC50 [5] was 0.34 µM.

Compound O=C1c2ccc(N3CCN(CCO)CC3)cc2C(=O)N1CCCCNc1ccnc2cc(Cl)ccc12 has an IC50 at 24 h [1] of 24.6 µM.

With O=C(Cn1cc(COc2ccc(Br)cc2)nn1)NCCCNc1ccnc2cc(Cl)ccc12 the CC50 at 72 h [2] was 75.5 µM and the IC50 [3] was 38.8 µM.

For O=C(Cn1cc(COc2ccc(Cl)cc2)nn1)NCCNc1ccnc2cc(Cl)ccc12, the CC50 at 72 h [2] was 28.9 µM and the IC50 [3] was 0.04 µM.

In the case of Cc1ccsc1-c1cncn1CCNc1ccnc2cc(Cl)ccc12, the IC50 [4] is reported as 5 µM and the IC50 [5] is reported as 0.46 µM.

Work on O=C1c2ccc(N3CCN(CCO)CC3)cc2C(=O)N1CCCCCCNc1ccnc2cc(Cl)ccc12 yielded an IC50 at 24 h [1] of 23.3 µM.

O=C(Cn1cc(-c2ccccc2)nn1)NCCCNc1ccnc2cc(Cl)ccc12 gave a CC50 at 72 h [2] of 41.5 µM and an IC50 [3] of 0.137 µM.

Compound CC(C)(C)c1cncn1CCNc1ccnc2cc(Cl)ccc12 has an IC50 [4] of 0.14 µM and an IC50 [5] of 0.5 µM.

Compound O=C1c2cccc(N3CCOCC3)c2C(=O)N1CCCCCCNc1ccnc2cc(Cl)ccc12 has an IC50 at 24 h [1] of 50.8 µM.

O=C1c2ccc(N3CCOCC3)cc2C(=O)N1CCCCCCNc1ccnc2cc(Cl)ccc12 showed an IC50 at 24 h [1] of 25.4 µM.

CC(C)c1ccc(-c2cncn2CCNc2ccnc3cc(Cl)ccc23)cc1 showed an IC50 [4] of 2.83 µM and an IC50 [5] of 0.29 µM.

O=C1c2ccc(N3CCN(CCO)CC3)cc2C(=O)N1CCCNc1ccnc2cc(Cl)ccc12 gave an IC50 at 24 h [1] of 25.3 µM.

FC(F)(F)c1ccc(-c2cncn2CCNc2ccnc3cc(Cl)ccc23)cc1 gave an IC50 [4] of 0.21 µM and an IC50 [5] of 0.45 µM.

Clc1ccc2c(NCCn3cncc3-c3c[nH]c4ccccc34)ccnc2c1 showed an IC50 [4] of 5 µM and an IC50 [5] of 1.7 µM.

With Cc1ccc(C(CCN(Cc2ccccc2)Cc2ccccc2)NCC(C)Nc2ccnc3cc(Cl)ccc23)cc1 (centres undefined) the IC50 [6] was 2.59 µM.

With Clc1ccc2c(NCCn3cncc3-c3ccc4c(c3)OCCO4)ccnc2c1 the IC50 [4] was 0.52 µM and the IC50 [5] was 2.4 µM.

Work on CN(c1ccnc2cc(Cl)ccc12)C(Cc1ccccc1)CN1CCOCC1 (centres undefined) yielded an IC50 [7] of 1.38 µM, a CC50 at 72 h [8] of 33.5 µM and an IC50 [9] of 1.2 µM.

O=C(Cn1cc(COc2ccc(Cl)cc2)nn1)NCCCCCCNc1ccnc2cc(Cl)ccc12 gave a CC50 at 72 h [2] of 7.41 µM and an IC50 [3] of 263 µM.

With CC(C)CC(CN1CCN(C)CC1)N(C)c1ccnc2cc(Cl)ccc12 (centres undefined) the IC50 [7] was 0.26 µM, the CC50 at 72 h [8] was 36.6 µM and the IC50 [9] was 0.06 µM.

Compound O=C(Cn1cc(COc2ccc(Cl)cc2)nn1)NCCCNc1ccnc2cc(Cl)ccc12 has a CC50 at 72 h [2] of 27.1 µM and an IC50 [3] of 90 µM.

With Cc1ccc(OCc2cn(CC(=O)NCCCNc3ccnc4cc(Cl)ccc34)nn2)cc1 the CC50 at 72 h [2] was over 208 µM and the IC50 [3] was 91.9 µM.

N#Cc1ccc(-c2cncn2CCNc2ccnc3cc(Cl)ccc23)cc1 showed an IC50 [4] of 5 µM and an IC50 [5] of 0.73 µM.

Work on O=C(/C=C/c1ccco1)c1ccc(S(=O)(=O)NCCCNc2cncc3cc(Cl)ccc23)cc1 yielded an IC50 [10] of over 50 µM and an IC50 [11] of 4.45 µM.

O=C1c2ccc(N3CCN(CCO)CC3)cc2C(=O)N1CCNc1ccnc2cc(Cl)ccc12 showed an IC50 at 24 h [1] of 26 µM.

With CC(C)CC(CN1CCCCC1)N(C)c1ccnc2cc(Cl)ccc12 (centres undefined) the IC50 [7] was 0.42 µM and the IC50 [9] was 0.15 µM.

With Cc1ccc(/C=C/C(=O)c2ccc(S(=O)(=O)NCCNc3cncc4cc(Cl)ccc34)cc2)cc1 the IC50 [10] was 24.9 µM and the IC50 [11] was 0.39 µM.

With COc1ccc(-c2cncn2CCNc2ccnc3cc(Cl)ccc23)cc1 the IC50 [4] was 5 µM and the IC50 [5] was 1.78 µM.

O=C1c2ccc(N3CCOCC3)cc2C(=O)N1CCCCNc1ccnc2cc(Cl)ccc12 gave an IC50 at 24 h [1] of 26.9 µM.

Clc1ccc2c(NCCn3cncc3-c3cccc(Oc4ccccc4)c3)ccnc2c1 showed an IC50 [4] of 5 µM and an IC50 [5] of 2.62 µM.

In the case of O=C1c2cccc(N3CCCCC3)c2C(=O)N1CCCCCCNc1ccnc2cc(Cl)ccc12, the IC50 at 24 h [1] is reported as 204 µM.

For O=C(/C=C/c1ccccc1Cl)c1ccc(S(=O)(=O)NCCNc2cncc3cc(Cl)ccc23)cc1, the IC50 [10] was 35.4 µM and the IC50 [11] was 0.37 µM.

For COc1ccc(C(CCN(Cc2ccccc2)Cc2ccccc2)NCC(C)Nc2ccnc3cc(Cl)ccc23)cc1 (centres undefined), the IC50 [6] was 2.4 µM.

In the case of CN(c1ccnc2cc(C(F)(F)F)ccc12)C(Cc1ccccc1)CN1CCCCC1 (centres undefined), the IC50 [9] is reported as 1.37 µM.

Work on Oc1ccc(-c2cncn2CCNc2ccnc3cc(Cl)ccc23)cc1 yielded an IC50 [4] of 3.79 µM and an IC50 [5] of 5 µM.

Work on CN(c1ccnc2cc(C(F)(F)F)ccc12)C(Cc1ccccc1)CN1CCOCC1 (centres undefined) yielded an IC50 [9] of 3.89 µM.

CCN(CC)CCC(NCC(C)Nc1ccnc2cc(Cl)ccc12)c1ccccc1 (centres undefined) gave an IC50 [6] of 3.84 µM.
